Test results reported in paper PMC6035067 (The Biochemical journal, 2018).
Entries after “also recorded” stand apart in the source; their conditions may differ. Like-named read-outs stand apart in the source and are kept apart here.

What was measured:
EtCYP112 [1] = biological target: T1, EtCYP112 (Erwinia tracheiphila, UniProt A0A0M2KIP9); assay: UV-Vis spectral binding titration of EtCYP112; conditions: for shift of the Soret-band from 419 to 391 nm: upon ligand addition
EtCYP112 [2] = biological target: T1, EtCYP112; assay type: biochemical; conditions: 20 μM substrate, 60 μM NADPH, 12 h at 25 °C
EtCYP112 [3] = biological target: T1, EtCYP112; conditions: previously tested as substrates; ref [9]; cited from earlier work
[4] = conversion of EtCYP112 to high-spin state upon ligand addition
[5] = α-band absorption at 570 nm upon ligand addition

SMILES	High Spin State (EtCYP112 [1]; [4])	α-band Absorbtion (EtCYP112 [1]; [5])	conversion by EtCYP112 (products observed) (EtCYP112 [2])	further results
C=C1C[C@]23C[C@H]1CC[C@H]2[C@]1(C=O)CCC[C@@](C)(C(=O)O)[C@H]1[C@@H]3C(=O)O [GA24]	80 – 90%	decreased		
C=C1C[C@@]23CC[C@H]4[C@@](C)(CCC[C@@]4(C)C(=O)O)[C@@H]2CC[C@@H]1C3 [ent-kaurenoic acid]	50 – 60%	decreased	no products were observed	
C=C1C[C@]23C[C@H]1CC[C@H]2[C@]1(C)CCC[C@@](C)(C(=O)OC)[C@H]1[C@@H]3C(=O)OC [MeGA12]	50 – 60%	decreased		fold higher Kd than free GA12 (EtCYP112 [1]; Kd of MeGA12 relative to GA12): 5 fold; conversion by EtCYP112 (EtCYP112 [3]): converted by EtCYP112 to GA9
C=C1C[C@@]23CC[C@@H]4C(C)(C)CCC[C@@]4(C)[C@@H]2CC[C@@H]1C3 [ent-kaurene]	< 5%	no decrease; also recorded: unchanged	did not serve as substrates	shift of the Soret-band from 419 to 391 nm (EtCYP112 [1]): only induces a small shift
C=C1C[C@]23C[C@H]1CC[C@H]2[C@]1(C)CCC[C@@](C)(C(=O)O)[C@H]1[C@@H]3C=O [GA12-aldehyde]	> 90%	decreased	transformed into two products	
C=C1C[C@]23C[C@H]1CC[C@H]2[C@@]12CCC[C@@](C)(C(=O)O1)[C@H]2[C@@H]3C(=O)O [GA9]	< 5%	without any decrease; also recorded: unchanged		shift of the Soret-band from 419 to 391 nm (EtCYP112 [1]): ~5%
C=C1C[C@@]23CC[C@H]4[C@@](C)(CCC[C@@]4(C)C(=O)OC)[C@@H]2CC[C@@H]1C3 [methyl-ent-kaurenoate]	10 – 15%	decreased	no products were observed	
C=C1C[C@]23C[C@H]1CC[C@H]2[C@@]12CCC[C@@](C)(C(=O)OC1)[C@H]2[C@@H]3C(=O)O [GA15 (closed lactone), GA15]	> 90%	decreased		
C=C1C[C@]23C[C@H]1CC[C@H]2[C@]1(C)CCC[C@@](C)(C(=O)O)[C@H]1C[C@@H]3O (single isomer, unassigned) [ent-7α-hydroxy kaurenoic acid]	50 – 60%	decreased	no products were observed	
C=C1C[C@@]23CC[C@H]4[C@@](C)(CCC[C@@]4(C)C=O)[C@@H]2CC[C@@H]1C3 [ent-kaurenal]	5 – 10%	decreased	no products were observed	
C=C1C[C@]23C[C@H]1CC[C@H]2[C@@]12CCC[C@@](C)(C(=O)OC1)[C@H]2[C@@H]3C(=O)OC [MeGA15]	80 – 90%	decreased		fold more tightly bound than the analogous form of free GA15 (EtCYP112 [1]; MeGA15 (closed δ-lactone) relative to GA15 closed lactone): about 6 fold; conversion by EtCYP112 (EtCYP112 [3]): converted by EtCYP112 to GA9
C=C1C[C@]23C[C@H]1CC[C@H]2[C@]1(C)CCC[C@@](C)(C(=O)O)[C@H]1[C@@H]3C(=O)O [GA12]	> 90%	decreased		
C=C1C[C@]23C[C@H]1CC[C@H]2[C@]1(C(=O)O)CCC[C@@](C)(C(=O)O)[C@H]1[C@@H]3C(=O)O [GA25]	10 – 20%	without any decrease; also recorded: unchanged		shift of the Soret-band from 419 to 391 nm (EtCYP112 [1]): 10–20%; conversion by EtCYP112 (EtCYP112 [3]): does not react
C=C1C[C@@]23CC[C@@H]4[C@](C)(CO)CCC[C@@]4(C)[C@@H]2CC[C@@H]1C3 [ent-kaurenol]	20 – 30%	decreased	no products were observed	
C=C1C[C@]23C[C@H]1CC[C@H]2[C@]1(CO)CCC[C@@](C)(C(=O)O)[C@H]1[C@@H]3C(=O)O [GA15 (open lactone), GA15]				High Spin State (EtCYP112 [1]): > 90%; α-band Absorbtion (EtCYP112 [1]): decreased
C=C1C[C@]23C[C@H]1CC[C@H]2[C@]1(C=O)CCC[C@@](C)(C(=O)OC)[C@H]1[C@@H]3C(=O)OC [MeGA24]	5 – 10%	no decrease; also recorded: unchanged		shift of the Soret-band from 419 to 391 nm (EtCYP112 [1]): only induces a partial shift; conversion by EtCYP112 (EtCYP112 [3]): does not react
